Molecules are shown by their SMILES. Read-outs that look alike come from different tables or passages of the source.

Series [1] is described as follows: ADME solubility determination at pH 2.0 and pH 7.4. It is filed as physicochemical. The note with it: aqueous buffer, thermodynamic from solid, LC-MS/MS. The gist of the method:
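Dried residues of 10 mM DMSO stocks were shaken in PBS pH 7.4 or pH 2.0 for 24 hours at 25° C. and 1,100 rpm. After centrifugation, supernatants were quantified by LC-MS/MS against a standard of known concentration, applying a dilution factor.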

The nature of series [2]: Liver microsomal stability, rat liver microsomes. It is filed as in vitro ADME. The note with it: 1 μM compound, NADPH, read-out: t1/2 (min) in RLM. The gist of the method: (§1)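 Compound (1 μM final) was incubated with prewarmed human or rat liver microsomes (1 mg/mL in 100 mM phosphate master mix) plus NADPH; aliquots at 0.5–30 minutes were quenched in cold acetonitrile and quantified by LC-MS/MS. Half-life came from the ln(% remaining) versus time slope, converted to CLint (μL/min/mg prot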

Series [3] can be described thus: Liver microsomal stability, human liver microsomes. It is filed as in vitro ADME. As to conditions: 1 μM compound, NADPH, read-out: t1/2 (min) in HLM. In outline: as §1
The mark [4] stands for this setting: PBS pH 2.0, shaken at 25° C. for 24 hours, read-out: Solubility at pH 2.0.
Setting [5] is: PBS pH 7.4, shaken at 25° C. for 24 hours, read-out: Solubility at pH 7.4.

As to `CCn1cc(C(F)(F)F)nc1-c1ccc(Cn2ncc3cnc(-c4c(OC)cnn4C4CCC4)nc32)cc1` [Example 84], the solubility at 24 h in series [1] (setting [4]) and in series [1] (setting [5]) was under 10 µM in each case. The half-life at 1 μM in series [2] and in series [3] was under 25 min throughout.

Take `COc1ncnc(C2CC2)c1-c1ncc2cnn(Cc3ccc(-c4nc(C(F)(F)F)n(C)n4)cc3)c2n1` [Example 85]: the solubility at 24 h in series [1] (setting [4]) and in series [1] (setting [5]) was under 10 µM in each case. Further, the half-life at 1 μM in series [2] and in series [3] was over 25 min in each case.

With `COc1ncnc(OC)c1-c1ncc2cnn(Cc3ccc(-c4nc(C(F)(F)F)cn4C)cc3)c2n1` [Example 86], the solubility at 24 h in series [1] (setting [4]) and in series [1] (setting [5]) was over 10 µM throughout. The half-life at 1 μM in series [2] and in series [3] was over 25 min in each case.

`CCn1cc(C(F)(F)F)nc1-c1ccc(Cn2ncc3cnc(-c4c(OC)ncnc4OC)nc32)cc1` [Example 87]: the solubility at 24 h in series [1] (setting [4]) and in series [1] (setting [5]) was over 10 µM each time. The half-life at 1 μM in series [2] and in series [3] was over 25 min throughout.

As for `CCn1cc(C(F)(F)F)nc1-c1ccc([C@H](C)n2ncc3cnc(-c4c(OC)ncnc4OC)nc32)cc1` [Example 88], the solubility at 24 h in series [1] (setting [4]) and in series [1] (setting [5]) was over 10 µM in each case. Moreover, the half-life at 1 μM in series [2] was under 25 min; in series [3], over 25 min.

Regarding `CCn1cc(C(F)(F)F)nc1-c1ccc([C@@H](C)n2ncc3cnc(-c4c(OC)ncnc4OC)nc32)cc1` [Example 89], the solubility at 24 h in series [1] (setting [4]) and in series [1] (setting [5]) was over 10 µM throughout. Moreover, the half-life at 1 μM in series [2] and in series [3] was over 25 min in each case.

Regarding `COc1ncnc(OC)c1-c1ncc2cnn(Cc3ccc(-c4nc(C(F)(F)F)cn4C(C)C)cc3)c2n1` [Example 90], the solubility at 24 h in series [1] (setting [4]) and in series [1] (setting [5]) was over 10 µM each time. For the same molecule, the half-life at 1 μM in series [2] and in series [3] was over 25 min in each case.

For `CCOc1ncnc(OCC)c1-c1ncc2cnn(Cc3ccc(-c4nc(C(F)(F)F)cn4CC)cc3)c2n1` [Example 91], the solubility at 24 h was over 10 µM in series [1] (setting [4]) and under 10 µM in series [1] (setting [5]). The half-life at 1 μM in series [2] and in series [3] was under 25 min in each case.

As for `CCn1cc(C(F)(F)F)nc1-c1ccc([C@H](C)n2ncc3cnc(-c4c(OC)ncnc4C4CC4)nc32)cc1F` [Example 96], the solubility at 24 h in series [1] (setting [4]) and in series [1] (setting [5]) was under 10 µM in each case. The half-life at 1 μM in series [2] and in series [3] was over 25 min in each case.

Take `COc1ncnc(C2CC2)c1-c1ncc2cnn([C@@H](C)c3ccc(-c4nc(C(F)(F)F)cn4C(C)C)cc3)c2n1` [Example 97]: the solubility at 24 h in series [1] (setting [4]) is over 10 µM; in series [1] (setting [5]), under 10 µM. Besides, the half-life at 1 μM in series [2] and in series [3] was over 25 min throughout.

For the molecule `COc1ncnc(C2CC2)c1-c1ncc2cnn([C@H](C)c3ccc(-c4nc(C(F)(F)F)cn4C(C)C)cc3)c2n1` [Example 98], the solubility at 24 h in series [1] (setting [4]) and in series [1] (setting [5]) was over 10 µM each time. Further, the half-life at 1 μM was under 25 min in series [2] and over 25 min in series [3].

As for `CCn1cc(C(F)(F)F)nc1-c1ccc(Cn2ncc3cnc(-c4c(OC)ncnc4C4CN(C)C4)nc32)cc1` [Example 101], the results for the solubility at 24 h in series [1] (setting [4]) and in series [1] (setting [5]) were over 10 µM and under 10 µM, respectively. Also, the half-life at 1 μM in series [2] and in series [3] was under 25 min in each case.

Consider `COc1ncnc(C2(C)CC2)c1-c1ncc2cnn(Cc3ccc(-c4nc(C(F)(F)F)cn4C)cc3)c2n1` [Example 104], for which the solubility at 24 h in series [1] (setting [4]) and in series [1] (setting [5]) was over 10 µM in each case. Also, the half-life at 1 μM in series [2] and in series [3] was under 25 min in each case.

With `COc1ncnc(C2(C)CC2)c1-c1ncc2cnn(Cc3ccc(-n4nc(C(F)(F)F)cc4C)cc3)c2n1` [Example 105], the solubility at 24 h in series [1] (setting [4]) is over 10 µM; in series [1] (setting [5]), under 10 µM. Further, the half-life at 1 μM in series [2] and in series [3] was over 25 min in each case.

On to `COc1ncnc(C2(C)CC2)c1-c1ncc2cnn(Cc3ccc(-n4nc(C(F)(F)F)cc4OC)cc3)c2n1` [Example 106], for which the solubility at 24 h in series [1] (setting [4]) and in series [1] (setting [5]) was under 10 µM each time. The half-life at 1 μM in series [2] and in series [3] was over 25 min in each case.

As for `COc1ncnc(C2(C)CC2)c1-c1ncc2cnn(Cc3ccc(-c4nc(C(F)(F)F)cn4C(C)C)cc3)c2n1` [Example 107], the solubility at 24 h in series [1] (setting [4]) and in series [1] (setting [5]) was over 10 µM in each case. Besides, the half-life at 1 μM in series [2] and in series [3] was over 25 min throughout.

As for `COc1ncnc(C2CC2(C)C)c1-c1ncc2cnn(Cc3ccc(-c4nc(C(F)(F)F)cn4C(C)C)cc3)c2n1` (centres unmarked) [Example 108], the solubility at 24 h was over 10 µM in series [1] (setting [4]) and under 10 µM in series [1] (setting [5]). The half-life at 1 μM in series [2] and in series [3] was under 25 min throughout.

On to `COc1ncnc(C(C)(C)C)c1-c1ncc2cnn(Cc3ccc(-c4nc(C(F)(F)F)cn4C)cc3)c2n1` [Example 109], for which the solubility at 24 h in series [1] (setting [4]) and in series [1] (setting [5]) was under 10 µM in each case. Further, the half-life at 1 μM in series [2] and in series [3] was under 25 min throughout.

For `COc1ncnc(C(C)(C)F)c1-c1ncc2cnn(Cc3ccc(-c4nc(C(F)(F)F)cn4C)cc3)c2n1` [Example 110], the solubility at 24 h in series [1] (setting [4]) and in series [1] (setting [5]) was over 10 µM in each case. Besides, the results for the half-life at 1 μM in series [2] and in series [3] were over 25 min and under 25 min, respectively.

Consider `COc1nc(C)c(-c2ncc3cnn(Cc4ccc(-c5nc(C(F)(F)F)cn5C)cc4)c3n2)c(OC)n1` [Example 111], for which the solubility at 24 h was over 10 µM in series [1] (setting [4]) and under 10 µM in series [1] (setting [5]). Further, the half-life at 1 μM was over 25 min in series [2] and under 25 min in series [3].

As to `COc1nc(N)nc(C2CC2)c1-c1ncc2cnn(Cc3ccc(-n4nc(C(F)(F)F)cc4C)cc3)c2n1` [Example 112], the solubility at 24 h in series [1] (setting [4]) was over 10 µM; in series [1] (setting [5]) it was under 10 µM. For the same molecule, the half-life at 1 μM in series [2] and in series [3] was over 25 min throughout.

Consider `CCOc1ncnc(OC)c1-c1ncc2cnn(Cc3ccc(-c4nc(C(F)(F)F)cn4CC)cc3)c2n1` [Example 113], for which the solubility at 24 h in series [1] (setting [4]) and in series [1] (setting [5]) was over 10 µM throughout. The half-life at 1 μM in series [2] is under 25 min; in series [3], over 25 min.

Regarding `CCn1cc(C(F)(F)F)nc1-c1ccc(Cn2ncc3cnc(-c4c(OC)ncnc4OC4CC4)nc32)cc1` [Example 114], the solubility at 24 h in series [1] (setting [4]) and in series [1] (setting [5]) was over 10 µM throughout. Besides, the half-life at 1 μM in series [2] and in series [3] was under 25 min throughout.

`COc1ncnc(C(C)C)c1-c1ncc2cnn(Cc3ccc(-n4nc(C(F)(F)F)cc4C)cc3)c2n1` [Example 115]: the solubility at 24 h in series [1] (setting [4]) and in series [1] (setting [5]) was under 10 µM in each case. Also, the half-life at 1 μM in series [2] and in series [3] was under 25 min throughout.

Consider `CCn1cc(C(F)(F)F)nc1-c1ccc(C(C)n2ncc3cnc(-c4c(OC)ncnc4C(C)C)nc32)cc1F` (centres unmarked) [Example 116], for which the solubility at 24 h is over 10 µM in series [1] (setting [4]) and under 10 µM in series [1] (setting [5]). The half-life at 1 μM in series [2] and in series [3] was under 25 min throughout.

Turning to `CCn1cc(C(F)(F)F)nc1-c1ccc([C@H](C)n2ncc3cnc(-c4c(OC)ncnc4C(C)C)nc32)cc1` [Example 117], the solubility at 24 h in series [1] (setting [4]) and in series [1] (setting [5]) was over 10 µM each time. The half-life at 1 μM in series [2] and in series [3] was under 25 min each time.

In the case of `CCn1cc(C(F)(F)F)nc1-c1ccc([C@H](C)n2ncc3cnc(-c4c(OC)ncnc4C(C)C)nc32)cc1F` [Example 118], the solubility at 24 h in series [1] (setting [4]) and in series [1] (setting [5]) was under 10 µM each time. Besides, the half-life at 1 μM in series [2] was under 25 min; in series [3], over 25 min.

Regarding `COc1ncnc(C(C)C)c1-c1ncc2cnn(Cc3ccc(-c4nc(C(F)(F)F)cn4C(C)C)cc3)c2n1` [Example 119], the solubility at 24 h in series [1] (setting [4]) was under 10 µM; in series [1] (setting [5]), over 10 µM. Moreover, the half-life at 1 μM in series [2] and in series [3] was over 25 min in each case.

`CNc1cc(C(F)(F)F)nn1-c1ccc(Cn2ncc3cnc(-c4c(OC)ncnc4C4CC4)nc32)cc1` [Example 120]: the solubility at 24 h in series [1] (setting [4]) and in series [1] (setting [5]) was under 10 µM in each case. Also, the half-life at 1 μM in series [2] and in series [3] was under 25 min each time.

With `COc1ncnc(C2CC2)c1-c1ncc2cnn(Cc3ccc(-n4nc(C(F)(F)F)cc4N(C)C)cc3)c2n1` [Example 121], the solubility at 24 h in series [1] (setting [4]) and in series [1] (setting [5]) was under 10 µM each time. The half-life at 1 μM in series [2] and in series [3] was under 25 min throughout.

Regarding `COc1ncnc(C2CC2)c1-c1ncc2cnn(Cc3ccc(-n4nc(C(F)(F)F)cc4N(C)C)c(F)c3)c2n1` [Example 122], the solubility at 24 h in series [1] (setting [4]) and in series [1] (setting [5]) was under 10 µM each time. In addition, the half-life at 1 μM in series [2] and in series [3] was under 25 min in each case.

As for `COc1ncnc(C2CC2)c1-c1ncc2cnn(Cc3ccc(-n4nc(C(F)F)cc4N(C)C)cc3)c2n1` [Example 123], the solubility at 24 h in series [1] (setting [4]) and in series [1] (setting [5]) was under 10 µM throughout. Further, the half-life at 1 μM in series [2] and in series [3] was under 25 min each time.

Values taken from patent US11485736B2 (KSQ Therapeutics, Inc., priority 2018, dated 2022).
